This passage reports IC50 results from patent US7816535B2, “Vinyl-phenyl derivatives for inflammation and immune-related uses” (Synta Pharmaceuticals Corp., priority 2006, dated 2010).

SMILES strings stand for the structures.

In this experiment the test system is IL-2 production. As to the kind of experiment: Inhibition of IL-2 production in PHA-activated Jurkat cells (ELISA). The format is cell-based. To be noted: Homo sapiens, Jurkat, 20 h, PHA 2.5 μg/mL, IL-2 ELISA. The method, then:
Jurkat cells were placed in a 96 well plate (0.5 million cells per well in 1% FBS medium) then a test compound of this invention was added at different concentrations. After 10 minutes, the cells were activated with PHA (final concentration 2.5 μg/mL) and incubated for 20 hours at 37° C. under CO2. The final volume was 200 μL. Following incubation, the cells were centrifuged and the supernatants collected and stored at −70° C. prior to assaying for IL-2 production. A commercial ELISA kit (IL-2 Eli-pair, Diaclone Research, Besancon, France) was used to detect production of IL-2, from which dose response curves were obtained. The IC50 value was calculated as the concentration at which 50% of maximum IL-2 production after stimulation was inhibited versus a non-stimulation control.

One may read the IC50 as the concentration needed to halve the response being measured. A higher IC50 goes with lower potency.

Regarding `CC1=C(c2ccc(NC(=O)c3c(F)cccc3F)cc2)CN(c2nc(C)c(C)o2)CC1` [Compound 82, 2,6-Difluoro-N-{4-[1-(4,5-dimethyl-oxazol-2-yl)-4-methyl-1,2,5,6-tetrahydro-pyridin-3-yl]-phenyl}-benzamide], the IC50 stood at 59.5 nM.

On to `CC1=C(c2ccc(NC(=O)c3ccncc3F)cc2)CN(c2nnnn2C)CC1` [Compound 85, N-{4-[1-(1-methyl-1H-tetrazol-5-yl)-4-methyl-1,2,5,6-tetrahydro-pyridin-3-yl]-phenyl}-3-fluoro-isonicotinamide], for which the IC50 worked out at 44.1 nM.

As to `CC1=C(c2ccc(NC(=O)c3ccncc3F)cc2)CN(c2cncnc2)CC1` [Compound 90, N-[4-(1-pyrimidin-5-yl-4-methyl-1,2,5,6-tetrahydro-pyridin-3-yl)-phenyl]-3-fluoro-isonicotinamide], the IC50 amounted to 126 nM.

Consider `CC1=C(c2ccc(NC(=O)c3c(F)cccc3F)cc2)CCN(c2nccs2)C1` [Compound 91, 2,6-Difluoro-N-[4-(1-thiazol-2-yl-3-methyl-1,2,5,6-tetrahydro-pyridin-4-yl)-phenyl]-benzamide], for which the IC50 was found to be 226 nM.

With `CC(C)=C(c1ccccc1)c1ccc(NC(=O)c2c(F)cccc2F)cc1` [Compound 92, 2,6-Difluoro-N-[4-(2-methyl-1-phenyl-propenyl)-phenyl]-benzamide], the IC50 was 43.8 nM.

In turn, `COc1ccc(C(=C(C)C)c2ccc(NC(=O)c3c(F)cccc3F)cc2)cc1` [Compound 93, 2,6-Difluoro-N-{4-[2-methyl-1-(4-methoxy-phenyl)-propenyl]-phenyl}-benzamide] yielded an IC50 of 54.6 nM.

`COc1cccc(C(=C(C)C)c2ccc(NC(=O)c3c(F)cccc3F)cc2)c1` [Compound 94, 2,6-Difluoro-N-{4-[2-methyl-1-(3-methoxy-phenyl)-propenyl]-phenyl}-benzamide] gave an IC50 of 138 nM.

As to `COc1ccccc1C(=C(C)C)c1ccc(NC(=O)c2c(F)cccc2F)cc1` [Compound 95, 2,6-Difluoro-N-{4-[2-methyl-1-(2-methoxy-phenyl)-propenyl]-phenyl}-benzamide], the midpoint of inhibition, the IC50, lay at 156 nM.

For `CC(=O)OCC(C)=C(C)c1ccc(NC(=O)c2c(F)cccc2F)cc1` [Compound 96, 2,6-Difluoro-N-[4-(1,2-dimethyl-3-acetoxy-propenyl)-phenyl]-benzamide], it took 631 nM to reach half-maximal inhibition (IC50).

On to `CCOC(=O)C1=C(c2ccc(NC(=O)c3c(F)cccc3F)cc2)CCCC1` [Compound 99, N-[4-(2-ethyoxycarbonyl-cyclohex-1-enyl)-phenyl]-2,6-difluoro-benzamide], for which the IC50 worked out at 282 nM.

`O=CC1=C(c2ccc(NC(=O)c3c(F)cccc3F)cc2)CCCC1` [Compound 100, N-[4-(2-formyl-cyclohex-1-enyl)-phenyl]-2,6-difluoro-benzamide] yielded an IC50 of 90 nM.

With `C=CC1=C(c2ccc(NC(=O)c3c(F)cccc3F)cc2)CCCC1` [Compound 101, N-[4-(2-vinyl-cyclohex-1-enyl)-phenyl]-2,6-difluoro-benzamide], half-maximal inhibition (IC50) was put at 11 nM.

In the case of `COC(=O)N1CCC(C)=C(c2ccc(NC(=O)c3ccncc3C)cc2)C1` [Compound 103, N-[4-(1-methoxycarbonyl-4-methyl-1,2,5,6-tetrahydro-pyridin-3-yl)-phenyl]-3-methyl-isonicotinamide], it took 150 nM to reach half-maximal inhibition (IC50).
